Holding throughout (type): biochemical
In one experiment the target is T1, PDK1[K76A] (Homo sapiens, UniProt O15530, K76A).
T1 construct: made in house; host or cells: human embryonic kidney 293 cells (pEBG2T vector)
T1 sequence (O15530 1-556 K76A): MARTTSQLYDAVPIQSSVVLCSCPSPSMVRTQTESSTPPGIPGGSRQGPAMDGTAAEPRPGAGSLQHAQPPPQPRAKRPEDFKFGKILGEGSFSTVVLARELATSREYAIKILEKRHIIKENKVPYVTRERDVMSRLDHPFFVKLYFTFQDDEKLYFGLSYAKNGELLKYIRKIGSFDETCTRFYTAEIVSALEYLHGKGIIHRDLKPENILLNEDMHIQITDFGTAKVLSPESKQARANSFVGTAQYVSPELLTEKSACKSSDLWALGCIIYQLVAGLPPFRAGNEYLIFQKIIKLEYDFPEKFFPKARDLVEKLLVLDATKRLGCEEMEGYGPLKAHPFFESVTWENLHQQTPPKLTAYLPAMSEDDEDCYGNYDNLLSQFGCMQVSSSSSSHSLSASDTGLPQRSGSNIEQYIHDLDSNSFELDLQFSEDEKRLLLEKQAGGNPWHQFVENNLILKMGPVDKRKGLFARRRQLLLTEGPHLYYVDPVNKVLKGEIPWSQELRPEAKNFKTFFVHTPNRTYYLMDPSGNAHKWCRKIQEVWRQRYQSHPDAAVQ
Description: PDK1 catalytic activity towards T308tide, activation by peptides, PDK1[K76A]. As to conditions: T308tide substrate. The procedure:
(§1) C. Activation of the indicated forms of PDK1 by 56K-pHM and S6K-HM. PDK1 activity was measured using the peptide substrate (T308tide) in the presence of the indicated concentrations of 56K-pHM (closed circles) and S6K-HM (open circles) as described in the methods. Assays were performed in triplicate and similar results obtained in 2 separate experiments. The results are the average—SD for a single experiment.
(§2) The ability of wild type and mutant PDK1 to phosphorylate the synthetic peptide T308tide ([…] ([Biondi et al., 2000]) (SEQ ID NO:108) was carried out in 30 μl assays containing 100 ng of wild type or mutant PDK1, 50 mM Tris/HCl pH 7.5, 0.1% 13-mercaptoethanol, 10 mM MgCl2, 100 μM [32γ P]ATP (200 cpm/pmol), 0.5 μM microcystin-LR, 1 mM T308tide in the presence or absence of the indicated concentrations of the 56K-pHM peptide ([…](P)YVAPSV) (SEQ ID NO:104) or 56K-HM. peptide ([…]) (SEQ ID NO:105). After incubation for 10 min at 30° C., 25 μl of the resultant mixture was spotted into P81 phosphocellulose paper (2×2 cm) and the papers washed and analysed as described previously for assays of MAP kinase. Control assays were carried out in parallel in which either PDK1, or peptide substrate were omitted; these values were always less than 5% of the activity measured in the presence of these reagents. […]

The target in the next experiment is T2, PDK1[R131A] (Homo sapiens, UniProt O15530, R131A).
T2 construct: GST (N); made in house; host or cells: human embryonic kidney 293 cells (pEBG2T vector)
T2 sequence (O15530 1-556 R131A): T1 sequence (O15530 1-556 K76A) with A76K, R131A
The experiment is described as follows: PDK1 catalytic activity towards T308tide, activation by peptides, PDK1[R131A]. The protocol:
as §1
The ability of wild type and mutant PDK1 to phosphorylate the synthetic peptide T308tide ([…] ([Biondi et al., 2000]) (SEQ ID NO:108) was carried out in 30 μl assays containing 100 ng of wild type or mutant PDK1, 50 mM Tris/HCl pH 7.5, 0.1% 13-mercaptoethanol, 10 mM MgCl2, 100 μM [32γ P]ATP (200 cpm/pmol), 0.5 μM microcystin-LR, 1 mM T308tide in the presence or absence of the indicated concentrations of the 56K-pHM peptide ([…](P)YVAPSV) (SEQ ID NO:104) or 56K-HM. peptide ([…]) (SEQ ID NO:105). After incubation for 10 min at 30° C., 25 μl of the resultant mixture was spotted into P81 phosphocellulose paper (2×2 cm) and the papers washed and analysed as described previously for assays of MAP kinase. Control assays were carried out in parallel in which either PDK1, or peptide substrate were omitted; these values were always less than 5% of the activity measured in the presence of these reagents. One Unit of PDK1 activity was defined as that amount required to catalyse the phosphorylation of 1 nmol of the T308tide in 1 min.

The target in experiment [1] is T3, mutant of PDK1 in which both Lys76 and Arg131 were changed to Ala (Homo sapiens, UniProt O15530, K76A/R131A).
T3 construct: GST (N); made in house; host or cells: human embryonic kidney 293 cells (pEBG2T vector)
Description: PDK1 catalytic activity towards T308tide, activation by peptides, Lys76 and Arg131 to Ala double mutant. As to conditions: peptide 0.3 and 1 mM, compared with PDK1[R131A]. The procedure: as §1, §2

The next experiment addresses T4, PDK1[Q150A] (Homo sapiens, UniProt O15530, Q150A).
T4 sequence (O15530 1-556 Q150A): T1 sequence (O15530 1-556 K76A) with A76K, Q150A
The experiment is described as follows: PDK1 catalytic activity towards T308tide, activation by peptides, PDK1[Q150A]. Also noted: made in house. The procedure:
as §1, §2

Structures are written as SMILES. Substitutions are numbered along the chain they refer to. Where a SMILES comes first, the peptide text is derived from it. [ ]: non-standard residue; d: D form. pT = C[C@@H](OP(=O)(O)O)[C@H](N)C(=O)O

T3 sequence (O15530 whole entry K76A/R131A): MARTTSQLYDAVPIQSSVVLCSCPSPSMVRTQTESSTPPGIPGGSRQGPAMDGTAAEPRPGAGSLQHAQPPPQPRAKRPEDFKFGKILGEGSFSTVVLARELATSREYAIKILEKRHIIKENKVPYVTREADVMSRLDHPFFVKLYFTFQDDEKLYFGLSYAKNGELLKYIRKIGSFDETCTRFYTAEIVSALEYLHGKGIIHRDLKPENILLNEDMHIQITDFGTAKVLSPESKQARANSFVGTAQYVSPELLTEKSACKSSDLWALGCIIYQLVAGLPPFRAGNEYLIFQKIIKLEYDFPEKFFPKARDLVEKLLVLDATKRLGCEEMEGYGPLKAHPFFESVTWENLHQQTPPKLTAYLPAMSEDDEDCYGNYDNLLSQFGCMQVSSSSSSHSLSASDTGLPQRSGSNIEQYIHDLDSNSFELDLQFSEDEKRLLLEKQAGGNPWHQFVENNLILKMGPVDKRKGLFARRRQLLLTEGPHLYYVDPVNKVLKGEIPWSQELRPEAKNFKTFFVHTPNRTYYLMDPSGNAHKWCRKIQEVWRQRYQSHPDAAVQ

For the molecule `CC(C)C[C@H](NC(=O)[C@H](Cc1ccccc1)NC(=O)[C@@H](NC(=O)[C@H](CCC(N)=O)NC(=O)[C@H](CC(N)=O)NC(=O)[C@H](C)NC(=O)[C@H](CO)NC(=O)[C@H](CCC(=O)O)NC(=O)[C@@H](N)CO)C(C)C)C(=O)NCC(=O)N[C@@H](Cc1ccccc1)C(=O)N[C@H](C(=O)N[C@@H](Cc1ccc(O)cc1)C(=O)N[C@H](C(=O)N[C@@H](C)C(=O)N1CCC[C@H]1C(=O)N[C@@H](CO)C(=O)N[C@H](C(=O)O)C(C)C)C(C)C)[C@@H](C)OP(=O)(O)O` [S6K-pHM] (H-SESANQVFLGF[pT]YVAPSV-OH; N-terminus and C-terminus assumed), the “higher concentration required to half maximally activate PDK1[K76A] than wild type” value on PDK1[K76A] was “approximately 3 fold”. Further, the “activation of PDK1[R131A]” value is “only moderately further increased” on PDK1[R131A] (peptide 0.3 and 1 mM); “not significantly activated” on PDK1[R131A] (peptide below 0.1 mM). Also, the “activation of Lys76/Arg131 to Ala double mutant” value in experiment [1] is “activated even less significantly”. In addition, the “activation of PDK1[Q150A]” value at PDK1[Q150A] (peptide 0.3 and 1 mM) is 2-3 fold; at PDK1[Q150A] (peptide below 0.1 mM), “not significantly activated”.

The record behind these values is patent publication US7792665B2, “Method for designing a compound based on the three dimensional structure of phosphoinositide dependent protein kinase 1 (PDK1)” (Medical Research Council, priority 2002, dated 2010).
